The target of one experiment is PHD1 (EGLN2) (Homo sapiens (Human), UniProt Q96KS0). Put plainly: HIF-PH assay (14CO2 capture), PHD1 enzyme inhibition. Conditions: Table 1; for IC50: individual measurement, read-out: IC50 (μM) PHD1; for PHD2/PHD1: ratio of the IC50 of the compound for each enzyme. Format: biochemical.
The next experiment has as its target PHD2 (EGLN1) (Homo sapiens (Human), UniProt Q9GZT9). Description: HIF-PH assay (14CO2 capture), PHD2 enzyme inhibition. Conditions: Table 1; individual measurement; read-out: IC50 (μM) PHD2. The class given is biochemical.

Structures are written as SMILES.

Chain of PHD1 (EGLN2) (Q96KS0 whole entry): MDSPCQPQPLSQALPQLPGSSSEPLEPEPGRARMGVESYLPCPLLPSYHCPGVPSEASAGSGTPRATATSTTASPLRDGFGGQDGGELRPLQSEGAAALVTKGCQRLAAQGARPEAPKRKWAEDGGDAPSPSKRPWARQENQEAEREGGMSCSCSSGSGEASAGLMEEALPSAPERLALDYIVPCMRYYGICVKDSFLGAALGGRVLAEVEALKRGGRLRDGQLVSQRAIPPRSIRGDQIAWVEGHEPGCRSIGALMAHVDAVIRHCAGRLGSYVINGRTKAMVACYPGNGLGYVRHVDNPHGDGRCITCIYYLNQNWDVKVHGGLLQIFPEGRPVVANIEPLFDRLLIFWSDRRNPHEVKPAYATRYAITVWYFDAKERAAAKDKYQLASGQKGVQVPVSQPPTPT
Chain of PHD2 (EGLN1) (Q9GZT9 whole entry): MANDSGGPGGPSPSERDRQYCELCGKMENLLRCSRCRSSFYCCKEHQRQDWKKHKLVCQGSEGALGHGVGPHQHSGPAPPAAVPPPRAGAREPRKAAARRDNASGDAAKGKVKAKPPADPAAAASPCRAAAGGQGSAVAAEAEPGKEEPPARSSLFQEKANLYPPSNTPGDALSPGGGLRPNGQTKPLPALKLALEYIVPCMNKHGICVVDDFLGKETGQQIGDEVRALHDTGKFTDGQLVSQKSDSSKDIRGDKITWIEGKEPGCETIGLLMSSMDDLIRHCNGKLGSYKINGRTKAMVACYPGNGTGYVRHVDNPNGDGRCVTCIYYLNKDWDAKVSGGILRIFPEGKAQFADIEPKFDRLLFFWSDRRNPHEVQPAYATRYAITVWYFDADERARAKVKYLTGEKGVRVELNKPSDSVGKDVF

By IC50 is commonly meant the midpoint of a concentration-inhibition curve. For the compound `N#Cc1nc(C(=O)NC2(CC(=O)O)CCC2)c(O)c2ccc(Oc3ccccc3)cc12` [Compound 106, {1-[(1-Cyano-4-hydroxy-7-phenoxy-isoquinoline-3-carbonyl)-amino]-cyclobutyl}-acetic acid], the results for the IC50 at PHD1 (EGLN2) and on PHD2 (EGLN1) were 7.79 µM and 74.5 µM, respectively. The PHD2/PHD1 at PHD1 (EGLN2) turned out to be 10.
Take `O=C(O)CCNC(=O)c1ncc2cc(-c3ccc(F)cc3)ccc2c1O` [Compound 132, 3-{[7-(4-Fluoro-phenyl)-4-hydroxy-isoquinoline-3-carbonyl]-amino}-propionic acid]: on PHD1 (EGLN2), the IC50 amounted to 2.38 µM and the PHD2/PHD1 is listed as 12. For the same compound, the IC50 on PHD2 (EGLN1) was 27.6 µM.
Taken in the same sequence, the figures for `Cc1ccc(Oc2ccc3c(O)c(C(=O)NCC(C)(C)C(=O)O)nc(C#N)c3c2)cc1` [Compound 44, 3-[(1-Cyano-4-hydroxy-7-p-tolyloxy-isoquinoline-3-carbonyl)-amino]-2,2-dimethyl-propionic acid] were 0.28 µM, 14 and 3.9 µM.
Taken in the same sequence, the figures for `CC(C)(CNC(=O)c1ncc2cc(Cc3ccccc3)ccc2c1O)C(=O)O` [Compound 146, 3-[(7-Benzyl-4-hydroxy-isoquinoline-3-carbonyl)-amino]-2,2-dimethyl-propionic acid] were 23.7 µM, 8 and 181 µM.
Taken in the same sequence, the figures for `N#Cc1nc(C(=O)NCCCCC(=O)O)c(O)c2ccc(Oc3ccccc3)cc12` [Compound 81, 5-[(1-Cyano-4-hydroxy-7-phenoxy-isoquinoline-3-carbonyl)-amino]-pentanoic acid] were 0.42 µM, 12 and 4.95 µM.
On to `CC(C)(CNC(=O)c1nc(C#N)c2cc(Sc3ccccc3)ccc2c1O)C(=O)O` [Compound 121, 3-[(1-Cyano-4-hydroxy-7-phenylsulfanyl-isoquinoline-3-carbonyl)-amino]-2,2-dimethyl-propionic acid], for which, on PHD1 (EGLN2), the IC50 is 0.84 µM and the PHD2/PHD1 was 10. The IC50 on PHD2 (EGLN1) was 8.18 µM.
For `CC(C)(CNC(=O)c1nc(-c2cncc(F)c2)c2cc(Oc3ccccc3)ccc2c1O)C(=O)O` [Compound 136, 3-{[1-(5-Fluoro-pyridin-3-yl)-4-hydroxy-7-phenoxy-isoquinoline-3-carbonyl]-amino}-2,2-dimethyl-propionic acid] the same measures were 7.21 µM, 28 and 200 µM.
Consider `N#Cc1ccc([C@H](CC(=O)O)NC(=O)c2nc(C#N)c3cc(Oc4ccccc4)ccc3c2O)cc1` [Compound 172, 3-(S)-[(1-Cyano-4-hydroxy-7-phenoxy-isoquinoline-3-carbonyl)-amino]-3-(4-cyano-phenyl)-propionic acid], for which, at PHD1 (EGLN2), the IC50 stood at 2.83 µM and the PHD2/PHD1 worked out at 10. On PHD2 (EGLN1), the IC50 was 27.6 µM.
Taken in the same sequence, the figures for `CCCC(CCC)(CNC(=O)c1nc(C#N)c2cc(Oc3ccccc3)ccc2c1O)C(=O)O` [Compound 18, 2-{[(1-Cyano-4-hydroxy-7-phenoxy-isoquinoline-3-carbonyl)-amino]-methyl}-2-propyl-pentanoic acid] were 4.43 µM, 7 and 29.9 µM.
Taken in the same sequence, the figures for `C[C@](O)(CNC(=O)c1nc(C#N)c2cc(Oc3ccccc3)ccc2c1O)C(=O)O` [Compound 73, (S)-3-(1-Cyano-4-hydroxy-7-phenoxyisoquinoline-3-carboxamido)-2-hydroxy-2-methylpropanoic acid] were 0.74 µM, 5 and 3.38 µM.
Taken in the same sequence, the figures for `CC(C)(CNC(=O)c1nc(C#N)c2cc(NC(=O)Nc3ccccc3)ccc2c1O)C(=O)O` [Compound 140, 3{-[1-Cyano-4-hydroxy-7-(3-phenyl-ureido)-isoquinoline-3-carbonyl]-amino}-2,2-dimethyl-propionic acid] were 2.81 µM, 12 and 33.5 µM.
With `O=C(O)CCCCNC(=O)c1ncc2cc(Oc3ccccc3)ccc2c1O` [Compound 5, 5-[(4-Hydroxy-7-phenoxy-isoquinoline-3-carbonyl)-amino]-pentanoic acid], the IC50 on PHD1 (EGLN2) was 2.75 µM; on PHD2 (EGLN1), 61.7 µM. Besides, the PHD2/PHD1 at PHD1 (EGLN2) was determined as 22.
Taken in the same sequence, the figures for `N#Cc1nc(C(=O)NCC2(C(=O)O)CCC2)c(O)c2ccc(Oc3cccnc3)cc12` [Compound 28, 1-({[1-Cyano-4-hydroxy-7-(pyridin-3-yloxy)-isoquinoline-3-carbonyl]-amino}-methyl)-cyclobutanecarboxylic acid] were 1.3 µM, 7.15 µM and 5.
In the case of `N#Cc1nc(C(=O)NCCCC(=O)O)c(O)c2ccc(Oc3ccccc3)cc12` [Compound 80, 4-[(1-Cyano-4-hydroxy-7-phenoxy-isoquinoline-3-carbonyl)-amino]-butyric acid], on PHD1 (EGLN2), the IC50 turned out to be 0.14 µM and the PHD2/PHD1 turned out to be 5. In addition, the IC50 at PHD2 (EGLN1) was determined as 0.71 µM.
Taken in the same sequence, the figures for `N#Cc1c2cc(Oc3ccccc3)ccc2c(O)c(C(=O)NCCCC(=O)O)[n+]1[O-]` [Compound 158, 3-(3-Carboxypropylcarbamoyl)-1-cyano-4-hydroxy-7-phenoxyisoquinoline 2-oxide] were 1.66 µM, 13 and 21 µM.
Taken in the same sequence, the figures for `N#Cc1nc(C(=O)NC(CC(=O)O)c2cccnc2)c(O)c2ccc(Oc3ccccc3)cc12` (stereo not drawn) [Compound 174, 3-[(1-Cyano-4-hydroxy-7-phenoxy-isoquinoline-3-carbonyl)-amino]-3-pyridin-3-yl-propionic acid] were 6.75 µM, 6 and 39.4 µM.
In the case of `CC(C)CC(CNC(=O)c1nc(C#N)c2cc(Oc3ccccc3)ccc2c1O)CC(=O)O` (stereo not drawn) [Compound 183, 3-{[(1-Cyano-4-hydroxy-7-phenoxy-isoquinoline-3-carbonyl)-amino]-methyl}-5-methyl-hexanoic acid], at PHD1 (EGLN2), the IC50 was determined as 1.63 µM and the PHD2/PHD1 stood at 8. Moreover, on PHD2 (EGLN1), the IC50 worked out at 12.6 µM.
Taken in the same sequence, the figures for `N#Cc1nc(C(=O)N[C@H](Cc2ccccc2)[C@H](O)C(=O)O)c(O)c2ccc(Oc3ccccc3)cc12` [Compound 74, (2S,3R)-3-(1-Cyano-4-hydroxy-7-phenoxyisoquinoline-3-carboxamido)-2-hydroxy-4-phenylbutanoic acid] were 1.55 µM, 5 and 7.64 µM.
For `C[C@@H](CC(=O)O)NC(=O)c1nc(C#N)c2cc(Oc3ccccc3)ccc2c1O` [Compound 78, 3-(S)-[(1-Cyano-4-hydroxy-7-phenoxy-isoquinoline-3-carbonyl)-amino]-butyric acid] the same measures were 3.27 µM, 30 and 96.8 µM.
On to `C[C@@H](CNC(=O)c1nc(C#N)c2cc(Oc3ccccc3)ccc2c1O)C(=O)O` [Compound 93, 3-[(1-Cyano-4-hydroxy-7-phenoxy-isoquinoline-3-carbonyl)-amino]-2-(S)-methyl-propionic acid], for which, on PHD1 (EGLN2), the IC50 came out at 0.16 µM and the PHD2/PHD1 is on record as 15. Besides, the IC50 at PHD2 (EGLN1) stood at 2.4 µM.
Taken in the same sequence, the figures for `CC(C)(CNC(=O)c1nc(C#N)c2ccc(Oc3ccccc3)cc2c1O)C(=O)O` [Compound 123, 3-[(1-Cyano-4-hydroxy-6-phenoxy-isoquinoline-3-carbonyl)-amino]-2,2-dimethyl-propionic acid] were 6.11 µM, 30 and 183 µM.
For `CC(C)(CNC(=O)c1nc(C#N)c2cc(Oc3c(F)cccc3F)ccc2c1O)C(=O)O` [Compound 22, 3-{[1-Cyano-7-(2,6-difluoro-phenoxy)-4-hydroxy-isoquinoline-3-carbonyl]-amino}-2,2-dimethyl-propionic acid] the same measures were 0.93 µM, 16 and 15.1 µM.
For `Cc1nc(C(=O)NCCC(=O)O)c(O)c2ccc(Oc3ccccc3)cc12` [Compound 108, 3-[(4-Hydroxy-1-methyl-7-phenoxy-isoquinoline-3-carbonyl)-amino]-propionic acid] the same measures were 29 µM, 7 and 200 µM.
Regarding `N#Cc1nc(C(=O)NCC2(C(=O)O)CC[S+]([O-])CC2)c(O)c2ccc(Oc3ccccc3)cc12` (stereo not drawn) [Compound 30, 4-{[(1-Cyano-4-hydroxy-7-phenoxy-isoquinoline-3-carbonyl)-amino]-methyl}-1-oxo-hexahydro-1λ^4-thiopyran-4-carboxylic acid], the IC50 on PHD1 (EGLN2) came to 25.1 µM; at PHD2 (EGLN1), 200 µM. Also, at PHD1 (EGLN2), the PHD2/PHD1 worked out at 8.
Taken in the same sequence, the figures for `CC(C)(CNC(=O)c1nc(C#N)c2cc(Oc3ccc4ccccc4c3)ccc2c1O)C(=O)O` [Compound 59, 3{-[1-Cyano-4-hydroxy-7-(naphthalen-2-yloxy)-isoquinoline-3-carbonyl]-amino}-2,2-dimethyl-propionic acid] were 0.13 µM, 0.86 µM and 6.5.
Taken in the same sequence, the figures for `O=C(O)CCCNC(=O)c1ncc2cc(NC(=O)c3ccc(F)cc3)ccc2c1O` [Compound 120, 4-{[7-(4-Fluoro-benzoylamino)-4-hydroxy-isoquinoline-3-carbonyl]-amino}-butyric acid] were 12.4 µM, 200 µM and 16.
Taken in the same sequence, the figures for `N#Cc1nc(C(=O)NCCCCC(=O)O)c(O)c2ccc(Oc3ccc(F)cc3Cl)cc12` [Compound 98, 5-{[7-(2-Chloro-4-fluoro-phenoxy)-1-cyano-4-hydroxy-isoquinoline-3-carbonyl]-amino}-pentanoic acid] were 0.27 µM, 3.73 µM and 14.

The values are drawn from patent US9409892B2, “4-hydroxy-isoquinoline compounds as HIF hydroxylase inhibitors” (FIBROGEN, INC., priority 2012, dated 2016).
